Measurements as given in ChEMBL document CHEMBL5042502, “Discovery of Potent and Selective 2-(Benzylthio)pyrimidine-based DCN1-UBC12 Inhibitors for Anticardiac Fibrotic Effects” (J Med Chem, 2022).
The source made the active and inactive calls. The rule behind the calls is not given here.

Columns and labels:
[1] = system: Fibroblast of cardiac tissue; test: Effect on Ang II-induced in Cul4B neddylation in mouse cardiac fibroblast at 1 uM preincubated for 2 hrs followed by Ang-II stimulation and further incubated for 24 hrs by western blot analysis; assay type: functional, cell-based; conditions: time 26.0 hrs
[2] = Cytotoxicity against Sprague-Dawley rat cardiac fibroblast incubated for 24 hrs by MTT assay; assay type: toxicity, cell-based, Fibroblast of cardiac tissue; conditions: cardiac fibroblasts
DCN1-like protein 1 [3] = target: T1, DCN1-like protein 1 (Homo sapiens, UniProt Q96GG9); test: Binding affinity to […] DCN1 (unknown origin) assessed as dissociation constant incubated for upto 180 secs by label-free biolayer interferometry assay
Target sequence in this assay (Q96GG9 whole entry): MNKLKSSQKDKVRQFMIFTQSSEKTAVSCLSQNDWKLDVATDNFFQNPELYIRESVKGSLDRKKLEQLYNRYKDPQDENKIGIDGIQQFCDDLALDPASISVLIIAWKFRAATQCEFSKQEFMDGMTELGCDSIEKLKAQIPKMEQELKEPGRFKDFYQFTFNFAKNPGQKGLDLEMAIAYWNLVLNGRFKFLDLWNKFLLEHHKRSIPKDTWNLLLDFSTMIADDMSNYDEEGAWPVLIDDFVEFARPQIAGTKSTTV

DCN1-like protein 1 [4] = target: T1, DCN1-like protein 1; test: Binding affinity to DCN1 (unknown origin) assessed as inhibitory constant
Target sequence in this assay (Q96GG9 whole entry): as above

DCN1-like protein 3 = target: T2, DCN1-like protein 3 (Homo sapiens, UniProt Q8IWE4); test: Binding affinity to DCN3 (unknown origin) assessed as inhibitory constant
T2 sequence (Q8IWE4 whole entry): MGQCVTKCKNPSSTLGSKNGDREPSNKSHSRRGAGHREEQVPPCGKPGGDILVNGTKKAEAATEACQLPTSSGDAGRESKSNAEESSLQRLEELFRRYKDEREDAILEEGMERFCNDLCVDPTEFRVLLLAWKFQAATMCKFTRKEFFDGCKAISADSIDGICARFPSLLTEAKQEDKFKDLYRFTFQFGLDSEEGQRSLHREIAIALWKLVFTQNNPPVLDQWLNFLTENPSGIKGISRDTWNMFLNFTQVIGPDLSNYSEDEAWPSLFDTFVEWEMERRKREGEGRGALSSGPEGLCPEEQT

Cardiac fibroblast [5] = test: Inhibition of intracellular DCN1 in Sprague-Dawley rat cardiac fibroblast measured between 42 to 62 degC at 10 uM incubated for 5 hrs by cellular thermal shift assay; assay type: cell-based
Cardiac fibroblast [6] = test: Inhibition of DCN1 in Ang II-treated Sprague-Dawley rat cardiac fibroblast assessed as inhibition of cell proliferation preincubated for 2 hrs followed by Ang-II stimulation and further incubated for 24 hrs by MTT assay; assay type: cell-based; conditions: dose 0.1-3 µM, time 26.0 hrs
[7] = Cytotoxicity against Sprague-Dawley rat cardiac fibroblast by MTT assay; assay type: toxicity, cell-based, Fibroblast of cardiac tissue; conditions: cardiac fibroblasts
Cardiac fibroblast [8] = test: Inhibition of DCN1 in Ang II-treated Sprague-Dawley rat cardiac fibroblast assessed as decrease in cell migration preincubated for 2 hrs followed by Ang-II stimulation and further incubated for 24 hrs by scratch wound healing assay based microscopy; conditions: Sprague-Dawle, time 26.0 hrs
Cardiac fibroblast [9] = test: Inhibition of DCN1 in Ang II-treated Sprague-Dawley rat cardiac fibroblast assessed as inhibited cell migration at 0.1 to 3 uM incubated for 24 hrs stained with crystal violet by transwell migration assay; assay type: cell-based; conditions: Sprague-Dawle, dose 0.1-3 µM
[10] = system: Fibroblast of cardiac tissue; test: Inhibition of differentiation of Ang II-induced mouse cardiac fibroblast to myofibroblast assessed as decrease in alpha-SMA expression levels at 1 uM preincubated for 2 hrs followed by Ang-II stimulation and further incubated for 24 hrs by immunofluorescence assay; assay type: functional, cell-based; conditions: time 26.0 hrs
[11] = system: Fibroblast of cardiac tissue; test: Reversal of Ang II-induced increase in collagen I secretion in mouse cardiac fibroblast at 1 uM preincubated for 2 hrs followed by Ang-II stimulation and further incubated for 24 hrs by western blot analysis; assay type: functional, cell-based; conditions: time 26.0 hrs
[12] = system: Fibroblast of cardiac tissue; test: Reversal of Ang II-induced increase in collagen III secretion in mouse cardiac fibroblast at 1 uM preincubated for 2 hrs followed by Ang-II stimulation and further incubated for 24 hrs by western blot analysis; assay type: functional, cell-based; conditions: time 26.0 hrs
[13] = system: Fibroblast of cardiac tissue; test: Reversal of Ang II-induced increase in cullin 3 secretion in mouse cardiac fibroblast at 1 uM preincubated for 2 hrs followed by Ang-II stimulation and further incubated for 24 hrs by western blot analysis; assay type: functional, cell-based; conditions: time 26.0 hrs
[14] = system: Fibroblast of cardiac tissue; test: Effect on Ang II-induced in Cul1 neddylation in mouse cardiac fibroblast at 1 uM preincubated for 2 hrs followed by Ang-II stimulation and further incubated for 24 hrs by western blot analysis; assay type: functional, cell-based; conditions: time 26.0 hrs
[15] = system: Fibroblast of cardiac tissue; test: Effect on Ang II-induced in Cul2 neddylation in mouse cardiac fibroblast at 1 uM preincubated for 2 hrs followed by Ang-II stimulation and further incubated for 24 hrs by western blot analysis; assay type: functional, cell-based; conditions: time 26.0 hrs
[16] = system: Fibroblast of cardiac tissue; test: Effect on Cul1 neddylation in mouse cardiac fibroblast at 1 uM preincubated for 2 hrs by Western blot analysis; assay type: functional, cell-based
[17] = system: Fibroblast of cardiac tissue; test: Effect on Cul2 neddylation in mouse cardiac fibroblast at 1 uM preincubated for 2 hrs by Western blot analysis; assay type: functional, cell-based
[18] = system: Fibroblast of cardiac tissue; test: Effect on Cul4A neddylation in mouse cardiac fibroblast at 1 uM preincubated for 2 hrs by Western blot analysis; assay type: functional, cell-based
[19] = system: Fibroblast of cardiac tissue; test: Effect on Cul4B neddylation in mouse cardiac fibroblast at 1 uM preincubated for 2 hrs by Western blot analysis; assay type: functional, cell-based
[20] = system: Fibroblast of cardiac tissue; test: Effect on Cul5 neddylation in mouse cardiac fibroblast at 1 uM preincubated for 2 hrs by Western blot analysis; assay type: functional, cell-based
[21] = system: Fibroblast of cardiac tissue; test: Reversal of TGF-beta-induced increase in collagen I secretion in mouse cardiac fibroblast at 1 uM preincubated for 2 hrs followed by TGF-beta stimulation and further incubated for 24 hrs by Western blot analysis; assay type: functional, cell-based; conditions: time 26.0 hrs
[22] = system: Fibroblast of cardiac tissue; test: Antifibrotic effect in SD rat cardiac fibroblast assessed as reduction in Ang II-induced collagen I upregulation preincubated for 2 hrs followed by Ang II-stimulation and further incubated for 24 hrs by western blot analysis (reference value: 71 %); assay type: functional; conditions: time 26 hrs
[23] = system: Fibroblast of cardiac tissue; test: Antifibrotic effect in SD rat cardiac fibroblast assessed as reduction in Ang II-induced activation of Nrf2 signaling pathway preincubated for 2 hrs followed by Ang II-stimulation and further incubated for 24 hrs by western blot analysis (reference value: 43 %); assay type: functional; conditions: time 26 hrs
[24] = system: Fibroblast of cardiac tissue; test: Antifibrotic effect in SD rat cardiac fibroblast transfected with DCN1 siRNA assessed as effect on collagen I expression at 1 uM preincubated for 2 hrs followed by Ang II-stimulation and further incubated for 24 hrs by western blot analysis; assay type: functional, cell-based; conditions: time 26.0 hrs
[25] = system: Fibroblast of cardiac tissue; test: Antifibrotic effect in SD rat cardiac fibroblast transfected with DCN1 siRNA assessed as effect on collagen III expression at 1 uM preincubated for 2 hrs followed by Ang II-stimulation and further incubated for 24 hrs by western blot analysis; assay type: functional, cell-based; conditions: time 26.0 hrs
[26] = Toxicity in 24 hr starved C57BL/6 mouse assessed as animal survival at 2 g/Kg administered via gavage measured upto 2 weeks; conditions: in vivo, po, 2000 mg/kg
[27] = Toxicity in 24 hr starved C57BL/6 mouse assessed as change in body weight at 2 g/Kg administered via gavage measured upto 2 weeks; conditions: in vivo, po, 2000 mg/kg
[28] = Toxicity in 24 hr starved C57BL/6 mouse assessed as change in cardiac function at 2 g/Kg administered via gavage measured after 2 weeks by echocardiography; conditions: in vivo, po, 2000 mg/kg
[29] = Toxicity in 24 hr starved C57BL/6 mouse assessed as pathological change in liver at 2 g/Kg administered via gavage measured after 2 weeks by H and E staining based histopathological analysis; assay type: tissue-based; conditions: in vivo, po, 2000 mg/kg
[30] = Toxicity in 24 hr starved C57BL/6 mouse assessed as pathological change in spleen at 2 g/Kg administered via gavage measured after 2 weeks by H and E staining based histopathological analysis; assay type: tissue-based; conditions: in vivo, po, 2000 mg/kg
DCN1-like protein 1 [31] = target: T1, DCN1-like protein 1
Target sequence in this assay (Q96GG9 whole entry, looked up): as the sequence (Q96GG9 whole entry) above
Description: Binding affinity to DCN1 (unknown origin) assessed as change in entropy by MM-PBSA method

DCN1-like protein 1 [32] = target: T1, DCN1-like protein 1; remark: listed apart in the source
Target sequence in this assay (Q96GG9 whole entry, looked up): as the sequence (Q96GG9 whole entry) above
Description: Binding affinity to DCN1 (unknown origin) assessed as Gibbs free energy change by MM-PBSA method

SMILES: COc1cc(-c2nc(SCc3ccc(Cl)cc3)nc(Sc3nnnn3C)c2C#N)cc(OC)c1OC
- Activity [1]: Active
- IC50 at 24 h [2]: 27.3 µM
- Kd (DCN1-like protein 1 [3]): 0.026 µM
- Ki (DCN1-like protein 1 [4]): 0.00826 µM
- Ki (DCN1-like protein 3): 385 µM
- inhibition (Cardiac fibroblast [5]): Active
- inhibition (Cardiac fibroblast [6]): Active
- IC50 [7]: 27.3 µM
- inhibition (Cardiac fibroblast [8]): Active
- inhibition (Cardiac fibroblast [9]): Active
- inhibition [10]: Active
- Activity [11]: Active
- Activity [12]: Active
- Activity [13]: Active
- Activity [14]: Active
- Activity [15]: Active
- Activity [16]: Active
- Activity [17]: Active
- Activity [18]: Active
- Activity [19]: Active
- Activity [20]: Active
- Activity [21]: Active
- inhibition (INH) [22]: 33%
- inhibition (INH) [23]: 37%
- inhibition [24]: inactive
- inhibition [25]: inactive
- Activity [26]: Non-Toxic
- Activity [27]: Non-Toxic
- Activity [28]: Non-Toxic
- Activity [29]: Non-Toxic
- Activity [30]: Non-Toxic
- -TdeltaS (DCN1-like protein 1 [31]): 11.2 kcal/mol
- deltaG (DCN1-like protein 1 [32]): -8.75 kcal/mol
